Measured values taken from PubChem BioAssay AID248 (DTP/NCI, 2004).
Several values for one entry are separate records, joined by “and”; a condition that tells them apart may be missing. Identical values can stand only once. Inconclusive results and toxic doses are left out. Cut-off read from the data, not from the text of the source: active = T/C of 150% or more; inactive = T/C below 125%.

Test system: L1210 leukemia ip in BDF1 mice, survival T/C
Assay: NCI In Vivo Anticancer Drug Screen. Data for tumor model L1210 Leukemia (intraperitoneal) in B6D2F1 (BDF1) mice
Details: endpoint: mean survival time, higher = longer survival
How it was run: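 Value reflects the ratio of survival in compound-treated mice to survival in vehicle-treated controls, with both groups carrying the same transplanted tumor.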

[1] = dose: 100.0 mg/kg/injection, schedule: Q01DX009 (ip), vehicle: saline with Tween-80
[2] = dose: 100.0 mg/kg/injection, schedule: Q04DX002 (ip), vehicle: saline with Tween-80
[3] = dose: 100.0 mg/kg/injection, schedule: Q04DX003 (ip), vehicle: saline with Tween-80
[4] = dose: 200.0 mg/kg/injection, schedule: Q01DX009 (ip), vehicle: saline with Tween-80
[5] = dose: 200.0 mg/kg/injection, schedule: Q04DX002 (ip), vehicle: saline with Tween-80
[6] = dose: 200.0 mg/kg/injection, schedule: Q04DX003 (ip), vehicle: saline with Tween-80
[7] = dose: 400.0 mg/kg/injection, schedule: Q04DX002 (ip), vehicle: saline with Tween-80
[8] = dose: 400.0 mg/kg/injection, schedule: Q04DX003 (ip), vehicle: saline with Tween-80
[9] = dose: 100.0 mg/kg/injection, schedule: Q04DX002 (ip), vehicle: Klucel (hydroxypropylcellulose) (HPC)
[10] = dose: 200.0 mg/kg/injection, schedule: Q04DX002 (ip), vehicle: Klucel (hydroxypropylcellulose) (HPC)
[11] = dose: 400.0 mg/kg/injection, schedule: Q04DX002 (ip), vehicle: Klucel (hydroxypropylcellulose) (HPC)
[12] = dose: 100.0 mg/kg/injection, schedule: Q01DX001 (ip), vehicle: saline
[13] = dose: 100.0 mg/kg/injection, schedule: Q04DX003 (ip), vehicle: saline
[14] = dose: 200.0 mg/kg/injection, schedule: Q01DX001 (ip), vehicle: saline
[15] = dose: 200.0 mg/kg/injection, schedule: Q04DX003 (ip), vehicle: saline
[16] = dose: 400.0 mg/kg/injection, schedule: Q01DX001 (ip), vehicle: saline
[17] = dose: 400.0 mg/kg/injection, schedule: Q04DX003 (ip), vehicle: saline
[18] = dose: 100.0 mg/kg/injection, schedule: Q01DX009 (ip), vehicle: Klucel (hydroxypropylcellulose) (HPC)
[19] = dose: 200.0 mg/kg/injection, schedule: Q01DX009 (ip), vehicle: Klucel (hydroxypropylcellulose) (HPC)
[20] = dose: 100.0 mg/kg/injection, schedule: Q04DX002 (ip), vehicle: saline
[21] = dose: 200.0 mg/kg/injection, schedule: Q04DX002 (ip), vehicle: saline
[22] = dose: 400.0 mg/kg/injection, schedule: Q04DX002 (ip), vehicle: saline

Measured: T/C

CCOc1ccc(Br)cc1
inactive: dose: 100.0 mg/kg/injection, schedule: Q01DX001 (ip), vehicle: saline with Tween-80 91 % of control | [1] 95 % of control and 105 % of control | [2] 97 % of control and 101 % of control | [3] 105 % of control | dose: 200.0 mg/kg/injection, schedule: Q01DX001 (ip), vehicle: saline with Tween-80 87 % of control | [4] 105 % of control and 92 % of control | [5] 119 % of control and 92 % of control | [6] 94 % of control | dose: 400.0 mg/kg/injection, schedule: Q01DX001 (ip), vehicle: saline with Tween-80 89 % of control | [7] 99 % of control and 91 % of control | [8] 101 % of control

Nc1ncnc2c1c(-c1nc(=S)[nH][nH]1)cn2C1OC(CO)C(O)C1O (configuration not stated)
inactive: dose: 100.0 mg/kg/injection, schedule: Q01DX005 (ip), vehicle: saline 106 % of control | dose: 200.0 mg/kg/injection, schedule: Q01DX005 (ip), vehicle: saline 108 % of control

CN1CCCC1c1cccc([N+](=O)[O-])c1 (configuration not stated)
inactive: dose: 100.0 mg/kg/injection, schedule: Q01DX001 (ip), vehicle: acetone 93 % of control

CCCCC[CH2][Sn]([CH2]CCCCC)([CH2]CCCCC)[NH]S(=O)(=O)c1ccc(C)cc1
inactive: [2] 87 % of control | [5] 105 % of control | [7] 94 % of control

O=C1c2cccc([N+](=O)[O-])c2C(=O)N1CCl
inactive: dose: 100.0 mg/kg/injection, schedule: Q01DX001 (ip), vehicle: steriod suspending solution 97 % of control | dose: 200.0 mg/kg/injection, schedule: Q01DX001 (ip), vehicle: steriod suspending solution 105 % of control

CCOC(=O)NCCCCN(C(C)=O)n1cnc2c(SC)ncnc21
inactive: dose: 12.5 mg/kg/injection, schedule: Q04DX002 (ip), vehicle: saline with Tween-80 100 % of control | dose: 25.0 mg/kg/injection, schedule: Q04DX002 (ip), vehicle: saline with Tween-80 94 % of control | dose: 50.0 mg/kg/injection, schedule: Q04DX002 (ip), vehicle: saline with Tween-80 97 % of control

COc1cc(/C=N/N=C/c2cc(OC)cc(OC)c2)cc(OC)c1
inactive: [9] 98 % of control | [10] 100 % of control | [11] 107 % of control

CCOC(=O)/C(=C\c1ccccc1)C(=O)c1ccccc1
inactive: [12] 97 % of control | [13] 97 % of control | [14] 93 % of control | [15] 92 % of control | [16] 88 % of control | [17] 101 % of control

CCC1N=C(N)N=C(N)N1c1ccc(Cl)cc1 (configuration not stated)
inactive: dose: 75.0 mg/kg/injection, schedule: Q01DX001 (ip), vehicle: saline 100 % of control | dose: 150.0 mg/kg/injection, schedule: Q01DX001 (ip), vehicle: saline 98 % of control

Nc1nc(-c2ccccc2)c(CCCNc2ccc(C(=O)NC(CCC(=O)O)C(=O)O)cc2)c(=O)[nH]1 (configuration not stated)
inactive: dose: 50.0 mg/kg/injection, schedule: Q01DX001 (ip), vehicle: saline 98 % of control | [12] 104 % of control | [3] 106 % of control | [14] 98 % of control | [6] 100 % of control | [16] 101 % of control | [8] 89 % of control

N#CC(C#N)=C1CCCc2sccc21
inactive: [12] 90 % of control | [14] 95 % of control | [16] 92 % of control

O=S(=O)(Nc1c(Cl)c(Cl)c(NS(=O)(=O)c2ccccc2)c(Cl)c1Cl)c1ccccc1
inactive: [18] 103 % of control | [19] 111 % of control | dose: 400.0 mg/kg/injection, schedule: Q01DX009 (ip), vehicle: Klucel (hydroxypropylcellulose) (HPC) 103 % of control

O=C(CC(NCc1ccccc1)C(=O)O)c1ccccc1 (configuration not stated)
inactive: [12] 100 % of control | [14] 97 % of control | [16] 97 % of control

NC(=O)NC(Cc1ccccc1)(C(=O)O)c1ccccc1 (configuration not stated)
inactive: dose: 100.0 mg/kg/injection, schedule: Q04DX003 (ip), vehicle: Klucel (hydroxypropylcellulose) (HPC) 103 % of control | dose: 200.0 mg/kg/injection, schedule: Q04DX003 (ip), vehicle: Klucel (hydroxypropylcellulose) (HPC) 98 % of control | dose: 400.0 mg/kg/injection, schedule: Q04DX003 (ip), vehicle: Klucel (hydroxypropylcellulose) (HPC) 103 % of control

CCc1c(CNc2ccc(C(=O)NC(CCC(=O)O)C(=O)O)cc2)ccc2nc(N)nc(N)c12 (configuration not stated)
inactive: dose: 0.12 mg/kg/injection, schedule: Q01DX003 (ip), vehicle: saline 89 % of control | dose: 4.0 mg/kg/injection, schedule: Q01DX009 (ip), vehicle: saline 88 % of control | dose: 2.5 micrograms/kg/injection, schedule: Q01DX009 (ip), vehicle: saline 101 % of control | dose: 5.0 micrograms/kg/injection, schedule: Q01DX009 (ip), vehicle: saline 111 % of control | dose: 10.0 micrograms/kg/injection, schedule: Q01DX009 (ip), vehicle: saline 113 % of control

C1CCC2(CC1)COC1(OC2)OCC2(CCCCC2)CO1
inactive: [9] 97 % of control | [10] 101 % of control | [11] 90 % of control

CCOC(=O)CN1C(=O)C(Cl)=C(Cl)C1=O
inactive: dose: 3.12 mg/kg/injection, schedule: Q01DX009 (ip), vehicle: saline with Tween-80 98 % of control | dose: 6.25 mg/kg/injection, schedule: Q01DX009 (ip), vehicle: saline with Tween-80 98 % of control | dose: 12.5 mg/kg/injection, schedule: Q01DX009 (ip), vehicle: saline with Tween-80 96 % of control

Nc1ncnc2sc3c(c12)CCc1ccccc1-3
inactive: dose: 50.0 mg/kg/injection, schedule: Q01DX009 (ip), vehicle: Klucel (hydroxypropylcellulose) (HPC) 92 % of control | [18] 98 % of control | [19] 95 % of control

CC(C)(C)[N+](Cc1ccccc1)(Cc1ccccc1)Cc1ccccc1
inactive: [3] 100 % of control | [6] 100 % of control | [8] 104 % of control

CC(C)OC(=S)SCC(=O)c1ccc(C(F)(F)F)cc1
inactive: [9] 96 % of control | [10] 92 % of control | [11] 92 % of control

COc1ccc(/C=C2\N=C(c3cc(OC)c(OC)c(OC)c3)OC2=O)cc1Br
inactive: [1] 91 % of control | [4] 91 % of control | dose: 400.0 mg/kg/injection, schedule: Q01DX009 (ip), vehicle: saline with Tween-80 102 % of control

O=C(Nc1coc2ccc(Cl)cc12)C1CC1
inactive: [1] 86 % of control | [4] 99 % of control

CC1=C(C)C(C)(Cl)C1(C)Cl (configuration not stated)
inactive: dose: 75.0 mg/kg/injection, schedule: Q01DX001 (ip), vehicle: acetone 108 % of control | dose: 150.0 mg/kg/injection, schedule: Q01DX001 (ip), vehicle: acetone 95 % of control

C=C1CC(O)C2C(C)C(=O)OC2C2C1CC1OC12C (configuration not stated)
inactive: [20] 92 % of control | [21] 95 % of control | [22] 92 % of control

C/C=C\CC(C(C)=O)C(=O)OCC (configuration not stated)
inactive: dose: 75.0 mg/kg/injection, schedule: Q01DX009 (ip), vehicle: saline 92 % of control | [13] 105 % of control | dose: 150.0 mg/kg/injection, schedule: Q01DX009 (ip), vehicle: saline 92 % of control | [15] 91 % of control | dose: 300.0 mg/kg/injection, schedule: Q01DX009 (ip), vehicle: saline 97 % of control | [17] 104 % of control

CC(=O)OCC1CCC1
inactive: [12] 93 % of control | [20] 105 % of control | [14] 91 % of control | [21] 118 % of control | [16] 90 % of control | [22] 96 % of control

CCN(CC)CCC(O)c1ccc2c(c1)[nH]c1ccccc12 (configuration not stated)
inactive: dose: 75.0 mg/kg/injection, schedule: Q01DX001 (ip), vehicle: carboxymethylcellulose (CMC) 97 % of control | dose: 150.0 mg/kg/injection, schedule: Q01DX001 (ip), vehicle: carboxymethylcellulose (CMC) 103 % of control

O=C(C[n+]1ccccc1)N/N=C/c1ccc(Cl)cc1
inactive: dose: 25.0 mg/kg/injection, schedule: Q01DX009 (ip), vehicle: saline with Tween-80 98 % of control | dose: 50.0 mg/kg/injection, schedule: Q01DX009 (ip), vehicle: saline with Tween-80 96 % of control | [1] 100 % of control

Cc1cc(NCC(=O)NN)ccc1Cl
inactive: dose: 50.0 mg/kg/injection, schedule: Q04DX002 (ip), vehicle: Klucel (hydroxypropylcellulose) (HPC) 103 % of control | [9] 104 % of control and 114 % of control | [10] 86 % of control
